Measurements taken from patent publication US8791077B2, “Method for treating hyperuricemia employing an SGLT2 inhibitor and composition containing same” (AstraZeneca AB, priority 2008, dated 2014).

Legend:
[1] = test system: Healthy Normal Volunteers; assay: Urinary glucose excretion over 24 hr in healthy normal volunteers after single doses of SGLT2 inhibitors; assay type: in vivo, human; conditions: healthy subjects; 5, 20, 50 or 100 mg; compared to GSK 869,682; FIG. 1
[2] = test system: type 2 diabetic patients
From the text: C-aryl glucoside SGLT2 inhibitors are known to reduce blood glucose levels in diabetic patients, see U.S. Pat. No. 6,774,112, which is incorporated herein by reference in its entirety, but not known to increase urine volume. […] Metformin reduces plasma glucose concentration by non-renal mechanisms and is not known to induce glucosuria. […] On day 1 and day 14, the patients were examined for the levels of glucosuria and changes in urine volumes. […] Patients' serum uric acid levels were not measured in this experiment.

[3] = test system: diabetic patients; assay: 12-week treatment of diabetic patients: urine glucose, HbA1C, urine volume, serum uric acid; assay type: in vivo, human; conditions: for Uric Acid (change in serum uric acid), mean ± standard deviation: 12 week treatment
[4] = test system: patients with diabetes; conditions: 5, 25, or 100 mg, FIG. 2
From the text: The levels of urine glucose of all subjects are shown in the plot and the mean urine glucose is in the darker lines.

[5] = test system: SGLT2 relative to SGLT-1; conditions: ratio of EC50 in SGLT1 and SGLT2 assay
From the text: Selectivity for SGLT2 of a given inhibitor can be determined by comparing the EC50 values measured in the SGLT1 and SGLT2 assay. […] The hSGLT1 and hSGLT2 sequences were cloned into pIRESneo vector (Clontech, Mountain View, Calif.) for mammalian expression and were stably transfected into Chinese hamster ovary (CHO) cells. SGLT-expressing clones were selected based on resistance to G418 antibiotic (GENETICIN®, Invitrogen, Carlsbad, Calif.) and activity in the ^14C-α-methyl-D-glucopyranoside (^14C-AMG) uptake assay.
Cells expressing hSGLT1 or hSGLT2 were maintained using standard cell culture techniques. […] Sodium-dependent ^14C-AMG uptake was calculated by subtracting the counts per minute (CPM) observed under sodium-free uptake conditions from the counts observed under sodium-containing conditions. Inhibitors were assayed at various concentrations in triplicate in the presence of sodium, and the percent inhibition was calculated by comparing CPM in inhibitor-containing wells with CPM in wells containing only DMSO vehicle. Phlorizin, a known SGLT inhibitor, was evaluated in parallel in every assay. […]

**Q.** Which results are given for `CCOc1ccc(Cc2cc([C@@H]3O[C@H](CO)[C@@H](O)[C@H](O)[C@H]3O)ccc2Cl)cc1` [dapagliflozin PGS, dapagliflozin (S)-propylene glycol solvate]?
**A.** Glucosuric effect (glucose excretion/day within 24 hours), loss of calories in urine [1]: significant loss of calories in the urine; Fasting serum glucose (FSG) levels ([2]; two-week period): Dose-dependent reduction; Postprandial glucose levels in oral glucose tolerance tests (OGTT) ([2]; two-week period): reduced postprandial glucose levels; Urine volumes ([2]; two-week period): no increase in urine volumes was apparent; Urinary glucose levels within a 24-hour time period ([2]; vs placebo, FIG. 3): increased; Uric Acid (change in serum uric acid), mean ± standard deviation ([3]; 2.5 mg): -1.03 ± 0.81 mg/dL; Uric Acid (change in serum uric acid), mean ± standard deviation ([3]; 5 mg): -1.12 ± 0.84 mg/dL; Uric Acid (change in serum uric acid), mean ± standard deviation ([3]; 10 mg): -0.98 ± 0.66 mg/dL; Uric Acid (change in serum uric acid), mean ± standard deviation ([3]; 20 mg): -1.13 ± 0.78 mg/dL; Uric Acid (change in serum uric acid), mean ± standard deviation ([3]; 50 mg): -1.14 ± 1.15 mg/dL; OGT ([3]; diabetic patients, 2.5-50 mg, after 12 weeks of treatment): improved OGT; Average of decrease in serum uric acid levels ([3]; diabetic patients, all doses, after 12 weeks treatment): approximately 1 g/dL; Urine glucose excretion compared to placebo [4]: higher levels of urine glucose excretion

**Q.** How did the “Selectivity for SGLT2 relative to SGLT-1” value [5] turn out when `CCOc1ccc(Cc2cc([C@@H]3O[C@H](CO)[C@@H](O)[C@H](O)[C@H]3O)ccc2Cl)cc1` [dapagliflozin] was run?
**A.** Its value is “High selectivity for SGLT2”.

**Q.** Which “Uric Acid (change in serum uric acid), mean ± standard deviation” value ([3]; metformin group) does the source give for `CN(C)C(=N)N=C(N)N` [metformin, reference compound] here?
**A.** Its value is 0.18 ± 0.53 mg/dL.

**Q.** What about the “Reduced HbA1C levels” value ([3]; diabetic patients, 1500 mg metformin) of the same compound?
**A.** Its value is 0.73%.
